Measurements taken from patent US20230265151A1, “GIP/GLP1 CO-AGONIST COMPOUNDS” (priority 2020, published 2023).
Where two headings read alike, the source gives them in different places.

Experiments:
[1] = target: T1, hGIPR (Homo sapiens, UniProt P48546); experiment: Functional cAMP formation (HTRF) in HEK-293 clonal cells expressing hGIPR, 0.1% bovine casein, without or with 1.0% human serum albumin; type: cell-based; conditions: for Emax: 37° C., 0.1% bovine casein, arithmetic mean; for EC50: cAMP, incubated at 37° C., 0.1% bovine casein (no human serum albumin), geometric mean
T1 construct: expressed in transfected cells
T1 sequence (P48546 22-466): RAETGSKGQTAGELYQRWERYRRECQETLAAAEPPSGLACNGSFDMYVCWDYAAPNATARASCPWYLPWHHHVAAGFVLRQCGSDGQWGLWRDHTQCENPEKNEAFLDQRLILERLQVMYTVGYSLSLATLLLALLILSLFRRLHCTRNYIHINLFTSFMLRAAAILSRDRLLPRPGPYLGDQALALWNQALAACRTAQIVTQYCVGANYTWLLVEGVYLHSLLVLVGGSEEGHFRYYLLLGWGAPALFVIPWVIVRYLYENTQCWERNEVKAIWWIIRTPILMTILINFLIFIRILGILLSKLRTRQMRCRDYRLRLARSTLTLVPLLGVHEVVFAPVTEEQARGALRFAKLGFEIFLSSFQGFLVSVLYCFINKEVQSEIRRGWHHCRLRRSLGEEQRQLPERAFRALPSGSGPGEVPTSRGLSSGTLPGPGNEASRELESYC
Description: (§1) After a 30-min incubation at 37° C., the resulting increase in intracellular cAMP is quantitatively determined using a CisBio cAMP Dynamic 2 HTRF Assay Kit (62AM4PEJ). Briefly, cAMP levels within the cell are detected by adding the cAMP-d2 conjugate in cell lysis buffer (10 µL) followed by the antibody anti-cAMP-Eu^3+-Cryptate, also in cell lysis buffer (10 µL). The resulting competitive assay is incubated for at least 60 min at room temperature, and then is detected using a PerkinElmer Envision® instrument with excitation at 320 nm and emission at 665 nm and 620 nm. Envision units (emission at 665 nm/620 nm* 10,000) are inversely proportional to the amount of cAMP present and are converted to nM cAMP per well us-ing a cAMP standard curve. […] A relative EC50 value and percent top (Emax) are derived by non-linear regression analysis using the percent maximal response vs. the concentration of peptide added, fitted to a four-parameter logistic equation.

[2] = target: T2, hGCGR (Homo sapiens, UniProt P47871); experiment: Functional cAMP formation (HTRF) in HEK-293 clonal cells expressing hGCGR, 0.1% bovine casein, without or with 1.0% human serum albumin; type: cell-based; conditions: cAMP, incubated at 37° C., 0.1% bovine casein (no human serum albumin), geometric mean
T2 construct: expressed in transfected cells
Description: as §1

[3] = HEK293, percent of maximal response to GIP(1-42)NH2, read-out: hGIPR Emax, % ± SEM
[4] = read-out: hGIPR EC50, nM (SEM, n)
[5] = read-out: hGCGR EC50, nM (SEM, n)
[6] = HEK293, read-out: hGIPR Emax, % ± SEM, percent of maximal response to GIP(1-42)NH2

T2 sequence (P47871 26-477): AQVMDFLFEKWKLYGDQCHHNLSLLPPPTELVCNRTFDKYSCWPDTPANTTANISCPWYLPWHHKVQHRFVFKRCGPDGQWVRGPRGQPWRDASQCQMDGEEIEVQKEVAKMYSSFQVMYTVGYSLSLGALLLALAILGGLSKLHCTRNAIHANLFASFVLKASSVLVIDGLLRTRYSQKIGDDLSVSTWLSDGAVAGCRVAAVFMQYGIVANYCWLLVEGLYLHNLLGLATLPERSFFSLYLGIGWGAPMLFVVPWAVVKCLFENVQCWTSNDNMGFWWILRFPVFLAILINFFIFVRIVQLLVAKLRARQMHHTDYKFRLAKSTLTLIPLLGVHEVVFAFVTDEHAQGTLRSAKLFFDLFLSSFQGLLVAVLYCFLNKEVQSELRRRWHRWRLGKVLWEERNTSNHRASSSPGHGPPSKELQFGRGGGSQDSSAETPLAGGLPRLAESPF

Row | Structure (SMILES) | Emax [1, 3] | EC50 [1, 4] | EC50 [2, 5] | Emax [1, 6] | EC50 ([1]; hGIPR EC50, nM (SEM, n)) | EC50 ([2]; hGCGR EC50, nM (SEM, n))
1 | CC[C@H](C)[C@H](NC(=O)[C@H](CC(C)C)NC(=O)[C@](C)(Cc1ccc(O)cc1)NC(=O)[C@@H](CCC(=O)O)NC(=O)[C@@H](NC(=O)[C@H](Cc1ccccc1)NC(=O)[C@H](CCC(=O)O)NC(=O)C1(NC(=O)[C@H](CCC(N)=O)NC(=O)[C@H](C)NC(=O)[C@H](CCCCNC(=O)COCCOCCNC(=O)COCCOCCNC(=O)CC[C@H](NC(=O)CCCCCCCCCCCCC(=O)O)C(=O)O)NC(=O)[C@H](CCCN)NC(=O)[C@H](CC(=O)O)NC(=O)[C@H](CC(C)C)NC(=O)[C@](C)(CC(C)C)NC(=O)[C@@H](NC(=O)[C@H](CO)NC(=O)[C@H](Cc2ccncc2)NC(=O)[C@H](CC(=O)O)NC(=O)[C@H](CO)NC(=O)[C@@H](NC(=O)[C@](C)(Cc2ccccc2F)NC(=O)[C@@H](NC(=O)CNC(=O)[C@H](CCC(=O)O)NC(=O)C(C)(C)NC(=O)[C@@H](N)Cc2ccc(O)cc2)[C@@H](C)O)[C@@H](C)O)[C@@H](C)CC)CCCCC1)[C@@H](C)CC)C(=O)N[C@@H](CCC(=O)O)C(=O)NCC(=O)NCC(=O)N[C@@H](CCCCNC(=O)COCCOCCNC(=O)COCCOCCNC(=O)CC[C@H](NC(=O)CCCCCCCCCCCCC(=O)O)C(=O)O)C(=O)N[C@@H](CO)C(=O)N[C@@H](CO)C(=O)NCC(=O)N[C@@H](C)C(=O)N1CCC[C@H]1C(=O)N1CCC[C@H]1C(=O)N1CCC[C@H]1C(=O)N[C@@H](CO)C(N)=O [Example 171] | 95.3% | 0.0389 nM | > 9950 nM |  |  | 
2 | CC[C@H](C)[C@H](NC(=O)[C@H](CC(C)C)NC(=O)[C@](C)(Cc1ccc(O)cc1)NC(=O)[C@@H](CCC(=O)O)NC(=O)[C@@H](NC(=O)[C@H](Cc1ccccc1)NC(=O)[C@H](CCC(=O)O)NC(=O)C(C)(C)NC(=O)[C@H](CCC(N)=O)NC(=O)[C@H](C)NC(=O)[C@H](CCC(N)=O)NC(=O)[C@H](CCCN)NC(=O)[C@H](CC(=O)O)NC(=O)[C@H](CC(C)C)NC(=O)[C@](C)(CC(C)C)NC(=O)[C@@H](NC(=O)[C@H](CO)NC(=O)[C@H](Cc1ccncc1)NC(=O)[C@H](CC(=O)O)NC(=O)[C@H](CO)NC(=O)[C@@H](NC(=O)[C@](C)(Cc1ccccc1F)NC(=O)[C@@H](NC(=O)CNC(=O)[C@H](CCC(=O)O)NC(=O)C(C)(C)NC(=O)[C@@H](N)Cc1ccc(O)cc1)[C@@H](C)O)[C@@H](C)O)[C@@H](C)CC)[C@@H](C)CC)C(=O)N[C@@H](CCCCNC(=O)COCCOCCNC(=O)COCCOCCNC(=O)CC[C@H](NC(=O)CCCCCCCCCCCCC(=O)O)C(=O)O)C(=O)NCC(=O)NCC(=O)N[C@@H](CCCCNC(=O)COCCOCCNC(=O)COCCOCCNC(=O)CC[C@H](NC(=O)CCCCCCCCCCCCC(=O)O)C(=O)O)C(=O)N[C@@H](CO)C(=O)N[C@@H](CO)C(=O)NCC(=O)N[C@@H](C)C(=O)N1CCC[C@H]1C(=O)N1CCC[C@H]1C(=O)N1CCC[C@H]1C(=O)N[C@@H](CO)C(N)=O [Example 86] | 94.2 ± 1.16% | 0.0184 nM | > 9950 nM |  |  | 
3 | CC[C@H](C)[C@H](NC(=O)[C@H](CC(C)C)NC(=O)[C@](C)(Cc1ccccc1)NC(=O)[C@H](CCCCNC(=O)COCCOCCNC(=O)COCCOCCNC(=O)CC[C@H](NC(=O)CCCCCCCCCCCCC(=O)O)C(=O)O)NC(=O)[C@@H](NC(=O)[C@H](Cc1ccccc1)NC(=O)[C@H](CCC(=O)O)NC(=O)C(C)(C)NC(=O)[C@H](CCC(N)=O)NC(=O)[C@H](C)NC(=O)[C@H](CCCCNC(=O)COCCOCCNC(=O)COCCOCCNC(=O)CC[C@H](NC(=O)CCCCCCCCCCCCC(=O)O)C(=O)O)NC(=O)[C@H](CCCN)NC(=O)[C@H](CC(=O)O)NC(=O)[C@H](CC(C)C)NC(=O)[C@](C)(CC(C)C)NC(=O)[C@@H](NC(=O)[C@H](CO)NC(=O)[C@H](Cc1ccncc1)NC(=O)[C@H](CC(=O)O)NC(=O)[C@H](CO)NC(=O)[C@@H](NC(=O)[C@](C)(Cc1ccccc1F)NC(=O)[C@@H](NC(=O)CNC(=O)[C@H](CCC(=O)O)NC(=O)C(C)(C)NC(=O)[C@@H](N)Cc1ccc(O)cc1)[C@@H](C)O)[C@@H](C)O)[C@@H](C)CC)[C@@H](C)CC)C(=O)N[C@@H](CCC(=O)O)C(=O)NCC(=O)NCC(=O)N1CCC[C@H]1C(=O)N[C@@H](CO)C(=O)N[C@@H](CO)C(=O)NCC(=O)N[C@@H](C)C(=O)N1CCC[C@H]1C(=O)N1CCC[C@H]1C(=O)N1CCC[C@H]1C(=O)N[C@@H](CO)C(N)=O [Example 83] |  |  |  | 89.6 ± 7.35% | 0.0223 nM | > 9950 nM
4 | CC[C@H](C)[C@H](NC(=O)[C@H](CC(C)C)NC(=O)[C@](C)(Cc1ccc(O)cc1)NC(=O)[C@H](CCCCNC(=O)COCCOCCNC(=O)COCCOCCNC(=O)COCCOCCNC(=O)CC[C@H](NC(=O)CCCCCCCCCCCCC(=O)O)C(=O)O)NC(=O)[C@@H](NC(=O)[C@H](Cc1ccccc1)NC(=O)[C@H](CCC(=O)O)NC(=O)C(C)(C)NC(=O)[C@H](CCC(N)=O)NC(=O)[C@H](C)NC(=O)[C@H](CCCCNC(=O)COCCOCCNC(=O)COCCOCCNC(=O)COCCOCCNC(=O)CC[C@H](NC(=O)CCCCCCCCCCCCC(=O)O)C(=O)O)NC(=O)[C@H](CCCN)NC(=O)[C@H](CC(=O)O)NC(=O)[C@H](CC(C)C)NC(=O)[C@](C)(CC(C)C)NC(=O)[C@@H](NC(=O)[C@H](CO)NC(=O)[C@H](Cc1ccncc1)NC(=O)[C@H](CC(=O)O)NC(=O)[C@H](CO)NC(=O)[C@@H](NC(=O)[C@](C)(Cc1ccccc1F)NC(=O)[C@@H](NC(=O)CNC(=O)[C@H](CCC(=O)O)NC(=O)C(C)(C)NC(=O)[C@@H](N)Cc1ccc(O)cc1)[C@@H](C)O)[C@@H](C)O)[C@@H](C)CC)[C@@H](C)CC)C(=O)N[C@@H](CCC(=O)O)C(=O)NCC(=O)NCC(=O)N1CCC[C@H]1C(=O)N[C@@H](CO)C(=O)N[C@@H](CO)C(=O)NCC(=O)N[C@@H](C)C(=O)N1CCC[C@H]1C(=O)N1CCC[C@H]1C(=O)N1CCC[C@H]1C(=O)N[C@@H](CO)C(N)=O [Example 80] |  |  |  | 92.4 ± 1.14% | 0.0245 nM | > 9950 nM
5 | CC[C@H](C)[C@H](NC(=O)[C@H](CCCN)NC(=O)[C@H](CC(=O)O)NC(=O)[C@H](CC(C)C)NC(=O)[C@](C)(CC(C)C)NC(=O)[C@@H](NC(=O)[C@H](CO)NC(=O)[C@H](CCCCNC(=O)COCCOCCNC(=O)COCCOCCNC(=O)CC[C@H](NC(=O)CCCCCCCCCCCCC(=O)O)C(=O)O)NC(=O)[C@H](CC(=O)O)NC(=O)[C@H](CO)NC(=O)[C@@H](NC(=O)[C@](C)(Cc1ccccc1F)NC(=O)[C@@H](NC(=O)CNC(=O)[C@H](CCC(=O)O)NC(=O)C(C)(C)NC(=O)[C@@H](N)Cc1ccc(O)cc1)[C@@H](C)O)[C@@H](C)O)[C@@H](C)CC)C(=O)N[C@@H](C)C(=O)N[C@@H](CCC(N)=O)C(=O)NC(C)(C)C(=O)N[C@@H](CCC(=O)O)C(=O)N[C@@H](Cc1ccccc1)C(=O)N[C@H](C(=O)N[C@@H](CCCCNC(=O)COCCOCCNC(=O)COCCOCCNC(=O)CC[C@H](NC(=O)CCCCCCCCCCCCC(=O)O)C(=O)O)C(=O)N[C@@](C)(Cc1ccc(O)cc1)C(=O)N[C@@H](CC(C)C)C(=O)N[C@H](C(=O)N[C@@H](CCC(=O)O)C(=O)NCC(=O)NCC(=O)N1CCC[C@H]1C(=O)N[C@@H](CO)C(=O)N[C@@H](CO)C(=O)NCC(=O)N[C@@H](C)C(=O)N1CCC[C@H]1C(=O)N1CCC[C@H]1C(=O)N1CCC[C@H]1C(=O)N[C@@H](CO)C(N)=O)[C@@H](C)CC)[C@@H](C)CC [Example 106] |  |  |  | 98.7 ± 3.32% | 0.0385 nM | > 9950 nM
